Measured values: patent publication US20230310627A1, “COMBINATION THERAPY WITH ANTI-TROP-2 ANTIBODIES AND PARP INHIBITORS” (priority 2021, published 2023)

Tests used:
TNBC xenografts = conditions: nude mice bearing TNBC xenografts; independent of BRCA1/2 mutation status; cited from earlier work
[1] = veliparib in combination with topotecan; cited from earlier work
patients with mTNBC = assay: Phase 1b/2 open-label study of SG in combination with talazoparib (NCT04039230); type: in vivo, human; conditions: every 21 days
Experimental: Study Design: In a Phase 1b/2, open-label study, SG was administered in combination with talazoparib for patients with mTNBC (clinicaltrials.gov#NCT04039230; FIG. 2A). Treatment cycles were continued until unacceptable toxicity or progression of disease at the discretion of the treating physician. Within 4 weeks prior to the first dose of study treatment administration, baseline evaluations were completed which included patient medical and surgical history, a physical examination with vital signs and performance evaluation, laboratories, and tumor assessment imaging. Once on active treatment, patients were administered SG and talazoparib over a 21 day cycle or 28 day cycle. […] All patients were monitored closely over the course of their treatment and NCI CTC v5.0 was used to grade all adverse events and provide dose reduction, delay, or cessation guidelines in the event of treatment-related toxicity. […]
Study Population: Patients enrolled were 18 years of age or older with histological or cytological confirmation of TNBC as determined by the local institution, with metastatic disease documented by CT or MRI imaging, and currently have measurable disease by CT/MRI. […]
Endpoints: Safety and tolerability of SG in combination with talazoparib was evaluated from adverse events, standard safety laboratories, physical examination, vital signs, and EKG. […]

[2] = test system: phosphorylated histone H2AX (γH2AX); assay: Flow cytometry of phosphorylated histone H2AX (γH2AX); type: cell-based
Experimental: Flow Cytometry: For flow cytometry detection of γH2AX (also known as g-H2AX), 1×10^6 cells were collected and fixed with 4% paraformaldehyde at 4° C. for 20 min and then permeabilized with 0.25% Triton X-100 in PBS. After blocking with 2% BSA in PBS at 4° C. for 20 min, the cells were stained with Alexa Fluor® 488 conjugated anti-phospho Histone H2A.X antibody (EMD Millipore, clone JBW301, #05-636-AF488) at 4° C. for 1 h. The cells were then washed twice with 2% BSA in PBS and counterstained with DAPI (Abcam, #ab228549). For flow cytometry detection of apoptotic cells, 1×10^6 cells were collected, and the staining was performed by using eBioscience™ Annexin V Apoptosis Detection Kit APC (Invitrogen, #88-8007) according to manufacturer's instruction. Samples were examined using a FACSAria flow cytometer. […]
Without wishing to be bound by any theory, sequential PARPi is believed to enhance SG toxicity through stabilization of TOP1CC that persist following SG washout due to the high delivered SN38 concentration in tumor cells (FIG. 3A). TOP1CC was quantified by two methods: the RADAR (Rapid Approach to DNA Adduct Recovery) assay, which detects TOP1 covalently bound to DNA, and by immunofluorescence. […] Persistent TOP1CC are expected to lead to DNA damage including double-strand DNA breaks, which were quantified using flow cytometry to assess phosphorylated histone H2AX (γH2AX) staining. […]

[3] = test system: patients with previously treated mTNBC; conditions: phase III ASCENT; cited from earlier work
[4] = molecular target: T1, TOP1 cleavage complexes (TOP1CC) (Homo sapiens, UniProt P11387); assay: TOP1CC detection by RADAR assay and immunofluorescence; type: cell-based
T1 construct: endogenous in cells; host or cells: MDA-MB-468 breast cancer cells (immunofluorescence); TNBC cell models (RADAR)
T1 sequence (P11387 1-765): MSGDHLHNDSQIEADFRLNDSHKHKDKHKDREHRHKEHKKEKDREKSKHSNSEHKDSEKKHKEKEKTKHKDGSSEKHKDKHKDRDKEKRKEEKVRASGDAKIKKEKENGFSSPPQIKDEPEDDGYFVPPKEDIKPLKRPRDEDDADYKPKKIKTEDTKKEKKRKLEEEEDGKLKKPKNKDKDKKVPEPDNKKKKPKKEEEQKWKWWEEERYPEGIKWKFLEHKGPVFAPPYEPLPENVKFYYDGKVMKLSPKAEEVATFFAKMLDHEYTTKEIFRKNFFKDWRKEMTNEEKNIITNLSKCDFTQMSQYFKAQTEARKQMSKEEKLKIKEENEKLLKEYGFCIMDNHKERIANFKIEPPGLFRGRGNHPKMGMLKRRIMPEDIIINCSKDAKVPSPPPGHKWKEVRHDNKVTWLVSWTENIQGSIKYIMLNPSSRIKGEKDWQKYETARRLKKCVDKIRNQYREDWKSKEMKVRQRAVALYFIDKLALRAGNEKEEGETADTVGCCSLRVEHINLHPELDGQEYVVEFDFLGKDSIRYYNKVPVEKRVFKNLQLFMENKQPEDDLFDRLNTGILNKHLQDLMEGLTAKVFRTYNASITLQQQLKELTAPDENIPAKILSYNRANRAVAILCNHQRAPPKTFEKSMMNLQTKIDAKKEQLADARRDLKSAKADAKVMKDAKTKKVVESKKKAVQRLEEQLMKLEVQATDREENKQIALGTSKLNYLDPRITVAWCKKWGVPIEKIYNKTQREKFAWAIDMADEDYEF
Experimental: Modification of the RADAR assay for detection of TOP1CC: Detection of TOP1CC was performed according to the published protocol (PMID: 34408146) with minor modification. After SG and/or TZP treatment, 1×10^6 cells per condition were washed with 1×PBS and lysed with 600 μl DNAzol (Invitrogen) at 4° C. for 10 min, followed by precipitation with 300 μl 100% ethanol. The nucleic acids were collected by centrifugation at 15,000 rpm for 10 min at 4° C., washed with 75% ethanol twice and resuspended in 200 μl TE buffer. The samples were then heated at 65° C. for 15 min, followed by shearing with sonication (40% output for 10 s pulse and 10 s rest for four times). […] The concentration of the sample was quantified by NanoDrop. […]
Immunofluorescence: To visualize TOP1CC by immunofluorescence, cells were plated into 96-well plates having #1.5 glass coverslips (Cellvis, P98-1.5H-N). […] Images were compiled and quantified using ImageJ software.
Without wishing to be bound by any theory, sequential PARPi is believed to enhance SG toxicity through stabilization of TOP1CC that persist following SG washout due to the high delivered SN38 concentration in tumor cells (FIG. 3A). TOP1CC was quantified by two methods: the RADAR (Rapid Approach to DNA Adduct Recovery) assay, which detects TOP1 covalently bound to DNA, and by immunofluorescence. […]

[5] = test system: normal diploid cells (WI-38); assay: In vitro cytotoxicity of sequential SG then talazoparib in normal diploid cells; type: cell-based
Experimental: Cell Lines and Cell Culture: All cell lines were obtained from the MGH Center for Molecular Therapeutics cell bank in and underwent high-density SNP typing to confirm their identity. All experiments shown were performed within less than 6 months' passage of all lines since acquisition. Cells were maintained at 37° C. in 5% CO2. MDA-MB-468 cells were grown in RPMI (Lonza) supplemented with 10% FBS (SAFC), 1% penicillin (Gibco), streptomycin (Gibco). WI-38 cells were grown in DMEM (Lonza) supplemented with 10% FBS (SAFC), 1% penicillin (Gibco), streptomycin (Gibco).
TROP2-expressing TNBC cells or normal diploid cells were exposed to SG, followed by washout, then PARPi treatment with Talazoparib.

colorectal cancer = conditions: continuous olaparib administration; cited from earlier work

For `CNCc1ccc(-c2[nH]c3cc(F)cc4c3c2CCNC4=O)cc1` [rucaparib], the “tumor growth inhibition in combination with sacituzumab govitecan” value (shortened to “tumor growth inhibition in combination”) (TNBC xenografts) is given as “Synthetic lethality and synergistic inhibition of tumor growth”.

For `CC[C@@]1(O)C(=O)OCc2c1cc1n(c2=O)Cc2cc3c(CN(C)C)c(O)ccc3nc2-1` [topotecan], the “MTD in the combination relative to single-agent MTD” value [1] is given as 40%.

In the case of `Cn1ncnc1[C@H]1c2n[nH]c(=O)c3cc(F)cc(c23)N[C@@H]1c1ccc(F)cc1` [talazoparib], the “tumor growth inhibition in combination” value (TNBC xenografts) is listed as “Synthetic lethality and synergistic inhibition of tumor growth” and the “recommended phase-2 dose (R2PD)” value (patients with mTNBC; talazoparib on days 15-21 after SG) is listed as 1 mg.

For sacituzumab govitecan [SG], the “DNA damage (γH2AX staining) after SG washout” value [2] is given as “resolution of DNA damage within 24 hours”, the median overall survival [3] is given as 12.1 months and the median progression-free survival [3] is given as 5.6 months. For the same compound, the “TOP1CC following SG washout” value [4] was “resolved entirely within two hours”, the “SG sensitivity (cytotoxicity)” value [5] was “little SG sensitivity” and the “recommended phase-2 dose (R2PD)” value (patients with mTNBC; sequential SG on days 1,8 with talazoparib) was 10 mg/kg.

For `O=C(c1cc(Cc2n[nH]c(=O)c3ccccc23)ccc1F)N1CCN(C(=O)C2CC2)CC1` [olaparib], the “toxicity of the combination with irinotecan” value (colorectal cancer) is listed as “higher-than-expected toxicities and considered intolerable” and the “tumor growth inhibition in combination” value (TNBC xenografts) is listed as “Synthetic lethality and synergistic inhibition of tumor growth”.

For `C[C@]1(c2nc3c(C(N)=O)cccc3[nH]2)CCCN1` [veliparib], the “MTD in the combination relative to single-agent MTD” value [1] is listed as 3%.
